# Results from patent EP0375183A1, “Antiviral dimers and trimers” (SCHERING CORPORATION, priority 1988, dated 1990).
# Tested on: strain HIV-III of the Human Immunodeficiency virus (HIV)
# Assay: Protection of HIV-infected human lymphocyte cell lines from virus destruction (syncytia formation, cell rounding/cytopathology), microtiter test
# Assay type: cell-based
# Conditions: Human immunodeficiency virus 1, Lymphocyte, continuous cell lines derived from human lymphocytes infected with HIV, incubated 7 to 14 days, microscopic inspection, tests (a) and (b), read-out: Protection of Cells
# Procedure: Continuous cell lines derived from human lymphocytes are grown in a microtiter test system. The cells are infected with strain […] of the Human Immunodeficiency virus (HIV), a standard strain isolated from a patient with Acquired Immune Deficiency Syndrome (AIDS). The treated cells are incubated for 7 to 14 days, and the treated cells are inspected by microscope to determine (a) prevention of synctia (cell to cell fusion) formation induced by HIV, or (b) prevention of cell rounding and prevention of HIV caused cytopathology. Such inspections indicate the ability of the compound to prevent cell killing by the virus. Additionally, biochemical determination of the cell media is made to ascertain the ability of the compound to prevent formation of viral products (reverse transcriptase, p24 antigen, or other products), and prevention of formation of more HIV itself.
# The control refers to the treatment without a compound of the present invention.
smiles,measurement,setting,value
"Cc1cn([C@H]2C[C@H](N=[N+]=[N-])[C@@H](COP(=O)(O)OCC3CCC(n4cnc5c(N)ncnc54)C3)O2)c(=O)[nH]c1=O (some centres unmarked) [Compound of Example 1, 5′-O-[[[3-(6-Amino-9H-purin-9-yl)cyclopentyl]methoxy]hydroxyphosphinyl]-3′-azido-3′-deoxy-thymidine]",inhibition at 32 µg/mL,Concentration 32 µg/ml,100%
same,inhibition at 100 µg/mL,Concentration 100 µg/ml,100%
